Eight compounds from ChEMBL document CHEMBL3351950, “Synthesis of genistein coupled with sugar derivatives and their inhibitory effect on nitric oxide production in macrophages” (Eur J Med Chem, 2014) can be followed below.

SMILES strings stand for the structures. Activity calls are given as the source filed them. The calls are words filed in the database; no cut-off is given here.

Data set [1] relates to RAW264.7. The data set can be described thus: Inhibition of nitric oxide production in LPS/IFNgamma-stimulated mouse RAW264.7 cells assessed as nitrites level at 26 uM by Griess method (reference value: 6.4 +/- 0.5 uM). In kind it is functional. In general terms: The Griess reaction detects nitrite, a stable product of nitric oxide.
Data set [2] is described as follows: Cytotoxicity against LPS/IFNgamma-stimulated mouse RAW264.7 cells assessed as cell viability at 6.5 uM after 48 hrs by MTT method (reference value: 100 +/- 1.8%). In kind it is cell-based. Conditions: LPS/IFNgamma-stimulated RAW264.7 cells, read-out: Activity.
Data set [3] has as its system RAW264.7. Description: Inhibition of TNFalpha production in LPS/IFNgamma-stimulated mouse RAW264.7 cells assessed as TNFalpha level at 6.5 uM by ELISA method. The format is functional, cell-based.
For data set [4], the system named is J774.A1. Description: Inhibition of nitric oxide production in LPS/IFNgamma-stimulated mouse J774A1 cells assessed as nitrites level at 13 uM by Griess method (reference value: 16.5 +/- 1.4 uM). In kind it is functional.
Data set [5] is described as follows: Cytotoxicity against LPS/IFNgamma-stimulated mouse RAW264.7 cells assessed as cell viability at 13 uM after 48 hrs by MTT method (reference value: 100 +/- 1.8%). The format is cell-based. As to conditions: LPS/IFNgamma-stimulated RAW264.7 cells, read-out: Activity. On the technique in general: Tetrazolium assays rely on reduction of a dye to a coloured formazan, in cell work by metabolically active cells.

The subject of data set [6] is J774.A1. The data set can be described thus: Inhibition of nitric oxide production in LPS/IFNgamma-stimulated mouse J774A1 cells assessed as nitrites level at 26 uM by Griess method (reference value: 16.5 +/- 1.4 uM). The format is functional.
Data set [7] in a line: Cytotoxicity against LPS/IFNgamma-stimulated mouse J774A1 cells assessed as cell viability at 26 uM after 48 hrs by MTT method (reference value: 100 +/- 1.1%). Conditions: read-out: Activity. In kind it is cell-based, J774.A1.
In data set [8] the test system is J774.A1. Description: Inhibition of nitric oxide production in LPS/IFNgamma-stimulated mouse J774A1 cells assessed as nitrites level at 6.5 uM by Griess method (reference value: 16.5 +/- 1.4 uM). The format is functional.
A short description of data set [9]: Cytotoxicity against LPS/IFNgamma-stimulated mouse J774A1 cells assessed as cell viability at 6.5 uM after 48 hrs by MTT method (reference value: 100 +/- 1.1%). In kind it is cell-based, J774.A1. Conditions: read-out: Activity.
The nature of data set [10]: Cytotoxicity against LPS/IFNgamma-stimulated mouse J774A1 cells assessed as cell viability at 13 uM after 48 hrs by MTT method (reference value: 100 +/- 1.1%). The format is cell-based, J774.A1. As to conditions: read-out: Activity.
Data set [11] is described as follows: Cytotoxicity against LPS/IFNgamma-stimulated mouse RAW264.7 cells assessed as cell viability at 26 uM after 48 hrs by MTT method (reference value: 100 +/- 1.8%). The format is cell-based. Conditions: LPS/IFNgamma-stimulated RAW264.7 cells, read-out: Activity.
The subject of data set [12] is J774.A1. The data set can be described thus: Inhibition of TNFalpha production in LPS/IFNgamma-stimulated mouse J774A1 cells assessed as TNFalpha level at 6.5 uM by ELISA method (reference value: 89.2 +/- 17.1 pg/mL). The format is functional.
Data set [13] deals with RAW264.7. Description: Inhibition of nitric oxide production in LPS/IFNgamma-stimulated mouse RAW264.7 cells assessed as nitrites level at 13 uM by Griess method (reference value: 6.4 +/- 0.5 uM). The format is functional.
The subject of data set [14] is RAW264.7. The data set can be described thus: Inhibition of nitric oxide production in LPS/IFNgamma-stimulated mouse RAW264.7 cells assessed as nitrites level at 6.5 uM by Griess method (reference value: 6.4 +/- 0.5 uM). In kind it is functional.

`O=c1c(-c2ccc(O)cc2)coc2cc(OC[C@H]3O[C@H](O)[C@H](O)[C@@H](O)[C@H]3O)cc(O)c12`: the Activity was found to be 0 µM with RAW264.7 [1]; 10.9 µM with J774.A1 [4]; 9.1 µM with J774.A1 [6]; 9.7 µM with J774.A1 [8]; 38.3 pg/mL in the data set on J774.A1 [12]; 0 µM in the data set on RAW264.7 [13]. Also, the Activity in the data set on RAW264.7 [14] worked out at 1.4 µM. Moreover, the values for the viability at 48 h, 6.5 µM in data set [2] and in data set [9] were 95.9% and 93.6%, respectively. Moreover, the inhibition entry with RAW264.7 [3] is “inactive”. In addition, the results for the viability at 48 h, 13 µM in [5] and in [10] were 98.2% and 95.2%, respectively. The values for the viability at 48 h, 26 µM in data set [7] and in data set [11] were 88.9% and 95.8%, respectively.
Consider `O=c1c(-c2ccc(O)cc2)coc2cc(O)cc(O)c12` [GENISTEIN], for which the Activity in the data set with RAW264.7 [1] was found to be 6.1 µM; in the data set on J774.A1 [4] it was 13.8 µM; with J774.A1 [6], 14.5 µM; in the data set on J774.A1 [8] it was 13.4 µM; with RAW264.7 [13], 6.3 µM; in the data set with RAW264.7 [14] it was 6.3 µM. In addition, the viability at 48 h, 6.5 µM in [2] was found to be 128%; in data set [9], 112%. The figures for the viability at 48 h, 13 µM in [5] and in data set [10] were 103% and 104%, respectively. Also, the viability at 48 h, 26 µM in data set [7] turned out to be 110%; in data set [11], 108%. Moreover, the inhibition entry in the data set on J774.A1 [12] was “inactive”.
Take `CO[C@H]1O[C@H](COc2cc(O)c3c(=O)c(-c4ccc(O)cc4)coc3c2)[C@@H](O)[C@H](O)[C@H]1O`: the Activity in the data set on RAW264.7 [1] was 1.7 µM; with J774.A1 [4] it was 11.3 µM; with J774.A1 [6], 14.3 µM; in the data set with J774.A1 [8], 7.2 µM; with RAW264.7 [13] it was 1 µM; with RAW264.7 [14], 1.4 µM. Besides, the viability at 48 h, 6.5 µM was determined as 91.3% in [2] and 68.1% in data set [9]. Besides, the inhibition result with RAW264.7 [3] and with J774.A1 [12] was “inactive” throughout. The viability at 48 h, 13 µM worked out at 88.1% in data set [5] and 64.3% in [10]. Also, the figures for the viability at 48 h, 26 µM in data set [7] and in data set [11] were 44.9% and 78.3%, respectively.
With `CO[C@H]1O[C@H](COc2ccc(-c3coc4cc(OC[C@H]5O[C@H](OC)[C@H](O)[C@@H](O)[C@@H]5O)cc(O)c4c3=O)cc2)[C@@H](O)[C@H](O)[C@H]1O`, the Activity in the data set with RAW264.7 [1] is 0 µM; in the data set on J774.A1 [4] it was 9.1 µM; in the data set with J774.A1 [6] it was 8.5 µM; in the data set with J774.A1 [8], 8.7 µM; in the data set on RAW264.7 [13], 0 µM; in the data set on RAW264.7 [14] it was 0 µM. In addition, the viability at 48 h, 6.5 µM in data set [2] is 93.6%; in [9] it was 99.9%. The inhibition entry with RAW264.7 [3] and in the data set on J774.A1 [12] was “inactive” throughout. Also, the viability at 48 h, 13 µM in [5] was 99.2%; in data set [10], 96.6%. Besides, the values for the viability at 48 h, 26 µM in data set [7] and in data set [11] were 94.8% and 92.2%, respectively.
For the compound `CO[C@H]1O[C@H](COc2cc(O)c3c(=O)c(-c4ccc(O)cc4)coc3c2)[C@@H](OC(C)=O)[C@H](OC(C)=O)[C@H]1OC(C)=O`, the Activity with RAW264.7 [1] was determined as 2.4 µM; with J774.A1 [4], 13.1 µM; with J774.A1 [6], 10.4 µM; in the data set with J774.A1 [8], 12.7 µM; with J774.A1 [12] it was 51.7 pg/mL; in the data set on RAW264.7 [13], 4.2 µM. Further, the Activity in the data set with RAW264.7 [14] came out at 2.1 µM. The values for the viability at 48 h, 6.5 µM in data set [2] and in data set [9] were 103% and 94.7%, respectively. In addition, the inhibition entry in the data set with RAW264.7 [3] is “inactive”. In addition, the viability at 48 h, 13 µM in [5] is 104%; in data set [10], 92.7%. The viability at 48 h, 26 µM in [7] amounted to 87.4%; in data set [11] it was 103%.
In the case of `CO[C@H]1O[C@H](COc2ccc(-c3coc4cc(OC[C@H]5O[C@H](OC)[C@H](OC(C)=O)[C@@H](OC(C)=O)[C@@H]5OC(C)=O)cc(O)c4c3=O)cc2)[C@@H](OC(C)=O)[C@H](OC(C)=O)[C@H]1OC(C)=O`, the Activity with RAW264.7 [1] was 4.1 µM; with J774.A1 [4], 12.1 µM; in the data set on J774.A1 [6] it was 11.7 µM; in the data set with J774.A1 [8], 11.5 µM; in the data set on J774.A1 [12], 51.9 pg/mL; in the data set with RAW264.7 [13] it was 2.5 µM. Besides, the Activity in the data set with RAW264.7 [14] is 1.9 µM. Moreover, the viability at 48 h, 6.5 µM is 103% in data set [2] and 82.1% in [9]. Further, the inhibition result in the data set on RAW264.7 [3] is “inactive”. Besides, the viability at 48 h, 13 µM in data set [5] came out at 98.4%; in data set [10] it was 86.7%. Moreover, the viability at 48 h, 26 µM was 87.9% in data set [7] and 101% in data set [11].
Consider `CC1(C)O[C@H]2[C@@H](O1)[C@@H](COc1ccc(-c3coc4cc(OC[C@H]5O[C@@H]6OC(C)(C)O[C@@H]6[C@H]6OC(C)(C)O[C@H]65)cc(O)c4c3=O)cc1)O[C@@H]1OC(C)(C)O[C@@H]12`, for which the Activity in the data set on RAW264.7 [1] was 2.4 µM; in the data set with J774.A1 [4] it was 11.8 µM; with J774.A1 [6], 12.3 µM; with J774.A1 [8], 9.8 µM; with RAW264.7 [13] it was 2.7 µM; in the data set with RAW264.7 [14] it was 2.6 µM. Also, the values for the viability at 48 h, 6.5 µM in data set [2] and in [9] were 98.9% and 89.7%, respectively. Besides, the inhibition result in the data set on RAW264.7 [3] and in the data set with J774.A1 [12] was “inactive” throughout. Besides, the viability at 48 h, 13 µM amounted to 89.4% in data set [5] and 87.3% in [10]. The viability at 48 h, 26 µM in [7] amounted to 83.6%; in [11] it was 94.4%.
For `CC1(C)O[C@H]2[C@@H](O1)[C@@H](COc1cc(O)c3c(=O)c(-c4ccc(O)cc4)coc3c1)O[C@@H]1OC(C)(C)O[C@@H]12`, the Activity turned out to be 3.1 µM in the data set with RAW264.7 [1]; 12.8 µM with J774.A1 [4]; 0.7 µM with J774.A1 [6]; 17.7 µM with J774.A1 [8]; 2.5 µM with RAW264.7 [13]; 2.4 µM in the data set on RAW264.7 [14]. Moreover, the viability at 48 h, 6.5 µM in data set [2] turned out to be 87.6%; in [9], 102%. Besides, the inhibition result with RAW264.7 [3] and with J774.A1 [12] was “inactive” throughout. Further, the viability at 48 h, 13 µM in data set [5] was 88.1%; in data set [10], 85.5%. The viability at 48 h, 26 µM in [7] was determined as 30.3%; in data set [11] it was 71.3%.
